The supplement of paper PMC6045584
± gives the standard deviation of the averaged measurements.

Key:
SOTRASTAURIN/AEB071 = compound: CN1CCN(c2nc(C3=C(c4c[nH]c5ccccc45)C(=O)NC3=O)c3ccccc3n2)CC1 [SOTRASTAURIN/AEB071]; test: surviving fraction relative to DMSO-only wells; higher = less growth inhibition; details: exposure time: 5 days
Outline: (§1)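 Tumour cell lines in log phase were plated in 384-well plates at 250–500 cells per well, then, after 24 hours, exposed continuously for five days to inhibitors at 0.5, 1, 5, 10, 50, 100, 500 and 1000 nM. Viability came from CellTiter-Glo luminescence, and surviving fraction is that signal normalised to the median of DMSO-only wells. Plates were read after 10 minutes at room temperature, and each line, screened three times, was kept only when replicate Pearson r was >0.7 and median Z' was >0.3.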

SORAFENIB = compound: CNC(=O)c1cc(Oc2ccc(NC(=O)Nc3ccc(Cl)c(C(F)(F)F)c3)cc2)ccn1 [SORAFENIB]; test: as above; details: exposure time: 5 days
Outline: as §1

For CCK81 LARGE INTESTINE, the surviving fraction (SOTRASTAURIN/AEB071; 0.5 nM) was 0.811 ± 0.12, the surviving fraction (SOTRASTAURIN/AEB071; 1 nM) was 0.829 ± 0.13 and the surviving fraction (SOTRASTAURIN/AEB071; 5 nM) was 0.892 ± 0.075. The surviving fraction (SOTRASTAURIN/AEB071; 10 nM) was 0.814 ± 0.079, the surviving fraction (SOTRASTAURIN/AEB071; 50 nM) was 0.917 ± 0.0085 and the surviving fraction (SOTRASTAURIN/AEB071; 100 nM) was 0.866 ± 0.038. The surviving fraction (SOTRASTAURIN/AEB071; 500 nM) was 0.943 ± 0.088 and the surviving fraction (SOTRASTAURIN/AEB071; 1000 nM) was 0.83 ± 0.064.
In the case of G292 BONE, the surviving fraction (SOTRASTAURIN/AEB071; 0.5 nM) is reported as 1.04 ± 0.016, the surviving fraction (SOTRASTAURIN/AEB071; 1 nM) is reported as 1.002 ± 0.0081 and the surviving fraction (SOTRASTAURIN/AEB071; 5 nM) is reported as 1.04 ± 0.057. The surviving fraction (SOTRASTAURIN/AEB071; 10 nM) was 1.01 ± 0.025, the surviving fraction (SOTRASTAURIN/AEB071; 50 nM) was 1.02 ± 0.072 and the surviving fraction (SOTRASTAURIN/AEB071; 100 nM) was 0.987 ± 0.077. The surviving fraction (SOTRASTAURIN/AEB071; 500 nM) was 0.969 ± 0.024, the surviving fraction (SOTRASTAURIN/AEB071; 1000 nM) was 0.982 ± 0.046 and the surviving fraction (SORAFENIB; 0.5 nM) was 0.973 ± 0.051. For the same test system, the surviving fraction (SORAFENIB; 1 nM) was 0.967 ± 0.034, the surviving fraction (SORAFENIB; 5 nM) was 1.01 ± 0.02 and the surviving fraction (SORAFENIB; 10 nM) was 1.02 ± 0.04. The surviving fraction (SORAFENIB; 50 nM) was 1.01 ± 0.058, the surviving fraction (SORAFENIB; 100 nM) was 0.96 ± 0.016 and the surviving fraction (SORAFENIB; 500 nM) was 0.918 ± 0.025.
HCC38 BREAST was tested, and the surviving fraction (SOTRASTAURIN/AEB071; 0.5 nM) was 0.974 ± 0.11, the surviving fraction (SOTRASTAURIN/AEB071; 1 nM) was 0.913 ± 0.14 and the surviving fraction (SOTRASTAURIN/AEB071; 5 nM) was 1.02 ± 0.16. It also gave a surviving fraction (SOTRASTAURIN/AEB071; 10 nM) of 1.16 ± 0.23, a surviving fraction (SOTRASTAURIN/AEB071; 50 nM) of 0.851 ± 0.19 and a surviving fraction (SOTRASTAURIN/AEB071; 100 nM) of 0.874 ± 0.042. For the same test system, the surviving fraction (SOTRASTAURIN/AEB071; 500 nM) was 0.759 ± 0.11, the surviving fraction (SOTRASTAURIN/AEB071; 1000 nM) was 0.805 ± 0.12 and the surviving fraction (SORAFENIB; 0.5 nM) was 1.19 ± 0.19. The surviving fraction (SORAFENIB; 5 nM) was 1.27 ± 0.14, the surviving fraction (SORAFENIB; 10 nM) was 1.18 ± 0.16 and the surviving fraction (SORAFENIB; 50 nM) was 1.26 ± 0.29. The surviving fraction (SORAFENIB; 100 nM) was 1.32 ± 0.21, the surviving fraction (SORAFENIB; 500 nM) was 1.29 ± 0.26 and the surviving fraction (SORAFENIB; 1000 nM) was 1.22 ± 0.26.
In the case of HCC70 BREAST, the surviving fraction (SOTRASTAURIN/AEB071; 0.5 nM) is reported as 1.17 ± 0.049, the surviving fraction (SOTRASTAURIN/AEB071; 1 nM) is reported as 1.05 ± 0.073 and the surviving fraction (SOTRASTAURIN/AEB071; 5 nM) is reported as 1.1 ± 0.046. It also gave a surviving fraction (SOTRASTAURIN/AEB071; 10 nM) of 1.14 ± 0.02, a surviving fraction (SOTRASTAURIN/AEB071; 50 nM) of 1.15 ± 0.024 and a surviving fraction (SOTRASTAURIN/AEB071; 100 nM) of 1.18 ± 0.038. For the same test system, the surviving fraction (SOTRASTAURIN/AEB071; 500 nM) was 1.25 ± 0.029, the surviving fraction (SOTRASTAURIN/AEB071; 1000 nM) was 1.22 ± 0.06 and the surviving fraction (SORAFENIB; 0.5 nM) was 1.01 ± 0.069. For the same test system, the surviving fraction (SORAFENIB; 1 nM) was 0.976 ± 0.082, the surviving fraction (SORAFENIB; 5 nM) was 1.1 ± 0.057 and the surviving fraction (SORAFENIB; 10 nM) was 1.01 ± 0.032. It also gave a surviving fraction (SORAFENIB; 50 nM) of 1.22 ± 0.019, a surviving fraction (SORAFENIB; 100 nM) of 1.34 ± 0.081 and a surviving fraction (SORAFENIB; 500 nM) of 1.33 ± 0.032. It also gave a surviving fraction (SORAFENIB; 1000 nM) of 1.25 ± 0.16.
For HMLE3 BREAST, the surviving fraction (SOTRASTAURIN/AEB071; 0.5 nM) was 1.11 ± 0.098, the surviving fraction (SOTRASTAURIN/AEB071; 1 nM) was 1.1 ± 0.057 and the surviving fraction (SOTRASTAURIN/AEB071; 5 nM) was 1.15 ± 0.034. It also gave a surviving fraction (SOTRASTAURIN/AEB071; 10 nM) of 1.13 ± 0.061, a surviving fraction (SOTRASTAURIN/AEB071; 50 nM) of 1.12 ± 0.087 and a surviving fraction (SOTRASTAURIN/AEB071; 100 nM) of 1.02 ± 0.078. For the same test system, the surviving fraction (SOTRASTAURIN/AEB071; 500 nM) was 0.961 ± 0.12, the surviving fraction (SOTRASTAURIN/AEB071; 1000 nM) was 0.831 ± 0.084 and the surviving fraction (SORAFENIB; 0.5 nM) was 0.899 ± 0.033. The surviving fraction (SORAFENIB; 1 nM) was 1 ± 0.0095, the surviving fraction (SORAFENIB; 5 nM) was 1.08 ± 0.084 and the surviving fraction (SORAFENIB; 10 nM) was 1.1 ± 0.045. For the same test system, the surviving fraction (SORAFENIB; 50 nM) was 1.3 ± 0.044, the surviving fraction (SORAFENIB; 100 nM) was 1.41 ± 0.045 and the surviving fraction (SORAFENIB; 500 nM) was 1.41 ± 0.021. The surviving fraction (SORAFENIB; 1000 nM) was 1.41 ± 0.079.
Test System HMT3552 BREAST has a surviving fraction (SOTRASTAURIN/AEB071; 0.5 nM) of 0.982 ± 0.13, a surviving fraction (SOTRASTAURIN/AEB071; 1 nM) of 0.975 ± 0.012 and a surviving fraction (SOTRASTAURIN/AEB071; 5 nM) of 0.984 ± 0.037. For the same test system, the surviving fraction (SOTRASTAURIN/AEB071; 10 nM) was 1.04 ± 0.04, the surviving fraction (SOTRASTAURIN/AEB071; 50 nM) was 1.03 ± 0.059 and the surviving fraction (SOTRASTAURIN/AEB071; 100 nM) was 1.04 ± 0.013. For the same test system, the surviving fraction (SOTRASTAURIN/AEB071; 500 nM) was 1.3 ± 0.11, the surviving fraction (SOTRASTAURIN/AEB071; 1000 nM) was 1.24 ± 0.06 and the surviving fraction (SORAFENIB; 0.5 nM) was 1.1. The surviving fraction (SORAFENIB; 1 nM) was 1.03, the surviving fraction (SORAFENIB; 50 nM) was 1.33 and the surviving fraction (SORAFENIB; 100 nM) was 1.29. The surviving fraction (SORAFENIB; 500 nM) was 1.36 and the surviving fraction (SORAFENIB; 1000 nM) was 1.29.
Work on HS57T BREAST yielded a surviving fraction (SOTRASTAURIN/AEB071; 0.5 nM) of 1.06 ± 0.044, a surviving fraction (SOTRASTAURIN/AEB071; 1 nM) of 1.08 ± 0.026 and a surviving fraction (SOTRASTAURIN/AEB071; 5 nM) of 1.12 ± 0.056. For the same test system, the surviving fraction (SOTRASTAURIN/AEB071; 10 nM) was 1.09 ± 0.063, the surviving fraction (SOTRASTAURIN/AEB071; 50 nM) was 1.03 ± 0.092 and the surviving fraction (SOTRASTAURIN/AEB071; 100 nM) was 1.05 ± 0.028. For the same test system, the surviving fraction (SOTRASTAURIN/AEB071; 500 nM) was 1.03 ± 0.031, the surviving fraction (SOTRASTAURIN/AEB071; 1000 nM) was 1 ± 0.087 and the surviving fraction (SORAFENIB; 0.5 nM) was 0.987 ± 0.058. It also gave a surviving fraction (SORAFENIB; 1 nM) of 1.045 ± 0.0089, a surviving fraction (SORAFENIB; 5 nM) of 1.05 ± 0.031 and a surviving fraction (SORAFENIB; 10 nM) of 1.082 ± 0.0081. For the same test system, the surviving fraction (SORAFENIB; 50 nM) was 1.09 ± 0.057, the surviving fraction (SORAFENIB; 100 nM) was 1.15 ± 0.084 and the surviving fraction (SORAFENIB; 500 nM) was 0.965 ± 0.059. It also gave a surviving fraction (SORAFENIB; 1000 nM) of 0.951 ± 0.021.
With HS578T BREAST the surviving fraction (SOTRASTAURIN/AEB071; 0.5 nM) was 0.899 ± 0.11, the surviving fraction (SOTRASTAURIN/AEB071; 1 nM) was 0.861 ± 0.083 and the surviving fraction (SOTRASTAURIN/AEB071; 5 nM) was 0.977 ± 0.27. The surviving fraction (SOTRASTAURIN/AEB071; 10 nM) was 0.954 ± 0.11, the surviving fraction (SOTRASTAURIN/AEB071; 50 nM) was 1.06 ± 0.16 and the surviving fraction (SOTRASTAURIN/AEB071; 100 nM) was 0.916 ± 0.057. The surviving fraction (SOTRASTAURIN/AEB071; 500 nM) was 0.877 ± 0.064, the surviving fraction (SOTRASTAURIN/AEB071; 1000 nM) was 1.01 ± 0.17 and the surviving fraction (SORAFENIB; 0.5 nM) was 0.671 ± 0.16. The surviving fraction (SORAFENIB; 1 nM) was 0.862 ± 0.077, the surviving fraction (SORAFENIB; 5 nM) was 0.766 ± 0.015 and the surviving fraction (SORAFENIB; 10 nM) was 0.776 ± 0.018. It also gave a surviving fraction (SORAFENIB; 50 nM) of 0.831 ± 0.15 and a surviving fraction (SORAFENIB; 100 nM) of 0.794 ± 0.034.
